Consider two molecules from patent publication US12545695B2, “Compounds for inhibiting neovascularization factors and use thereof” (UNIST (ULSAN NATIONAL INSTITUTE OF SCIENCE AND TECHNOLOGY), priority 2019, dated 2026).

In test [1] the test system is TRAP-1. The experiment in a line: Pull-down assay: client proteins SIRT3 and SDHB on GST-TRAP1 beads. It counts as binding. The conditions noted are these: TRAP1-bead form with isolated mitochondria and drug, 4° C., 18 hours (FIG. 14). On the procedure: A pull-down assay was performed to confirm whether SMx competitively binds to SIRT3 and SDHB, which are known as client proteins of TRAP-1. TRAP1 protein in the GST fusion form was purified from bacteria cells and then bound to glutathione beads to make a TRAP1-bead form, and then the TRAP1-bead form was bound to the mitochondria isolated from mammalian cells (Thermo Scientific mitochondria isolation kit) with a drug at 4° C. for 18 hours. The cells were treated with SMx, and gamitrinib and PU-H71, which are previously developed N-terminal domain inhibitors of hsp90s, as the drugs, according to the concentrations shown in the drawing. […] This is strong evidence that SMx has the ability to bind to the middle domain of TRAP-1.

The test system of test [2] is TRAP-1. The experiment in a line: ATPase activity assay (PiColorLock Gold Phosphate Detection Kit). It counts as biochemical. The conditions noted are these: TRAP1 0.5 μM, 0.2 mM ATP, inhibitor 0.520 μM preincubated 30 minutes (FIG. 16). On the procedure:
ATPase activity was measured by measuring the release of inorganic phosphates through the PiColorLock Gold Phosphate Detection Kit (Innova Biosciences) according to the manufacturer's manual. TRAP1 (0.5 μM) was cultured with 0.2 mM ATP in 100 mM Tris, 20 mM KCl, and 6 mM MgCl2 under the conditions of pH 7.0 and 37° C. for 3 hours. Thereafter, the PiColorLock Gold reagent and an accelerator (100:1) were added to a 100 μL ATP hydrolyzate sample. After culturing at 25° C. for 5 minutes, the change in color was stopped by adding 10 μL of a stop solution thereto, and the absorbance at 620 nm was measured by SYNERGY NEO microplate reader (BioTek Instruments).
For inhibitory ability analysis, TRAP1 was cultured with a predetermined concentration (0.520 μM) of inhibitor for 30 minutes and then stirred with ATP. Absorbance values were normalized to a DMSO control and data was expressed as % ATPase activity.
For inhibitory ability analysis, TRAP-1 was cultured with a predetermined concentration (0.520 μM) of inhibitor for 30 minutes and then stirred with ATP. Absorbance values were normalized to a DMSO control and data was expressed as % ATPase activity.

On to gamitrinib, for which the “binding of the client protein (SIRT3, SDHB) to TRAP-1” value in test [1] is reported as “not significantly changed”.

For `CC(C)NCCCn1c(Sc2cc3c(cc2I)OCO3)nc2c(N)ncnc21` [PU-H71], in test [2], the “ATPase activity of TRAP-1” value was “significantly decreased according to the concentration”. Moreover, the “binding of the client protein (SIRT3, SDHB) to TRAP-1” value in test [1] is reported as “not significantly changed”.
